Test results as given in PubChem BioAssay (NCI).
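Five concentrations, 48 hours, 96-well plates. Here, GI50 denotes the concentration required for 50% inhibition of growth. Definition used: TGI = concentration required for complete inhibition of growth.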

Assays:
Assay in all cases: growth of human tumour cells (NCI), 48 h
SF-539 CNS = test system: SF-539 CNS
ACHN renal = test system: ACHN renal
HOP-92 NSCLC = test system: HOP-92 NSCLC
SF-295 CNS = test system: SF-295 CNS
HT29 colon = test system: HT29 colon
M14 melanoma = test system: M14 melanoma
IGROV1 ovarian = test system: IGROV1 ovarian
CCRF-CEM leukemia = test system: CCRF-CEM leukemia
SK-MEL-5 melanoma = test system: SK-MEL-5 melanoma
K-562 leukemia = test system: K-562 leukemia

SMILES	TGI (SF-539 CNS) [µM]	TGI (ACHN renal) [µM]	TGI (HOP-92 NSCLC) [µM]	TGI (SF-295 CNS) [µM]	TGI (HT29 colon) [µM]	TGI (M14 melanoma) [µM]	TGI (IGROV1 ovarian) [µM]	TGI (CCRF-CEM leukemia) [µM]	TGI (SK-MEL-5 melanoma) [µM]	TGI (K-562 leukemia) [µM]	GI50 (SF-539 CNS) [µM]	GI50 (ACHN renal) [µM]	GI50 (SK-MEL-5 melanoma) [µM]	GI50 (SF-295 CNS) [µM]	GI50 (HT29 colon) [µM]	GI50 (M14 melanoma) [µM]	GI50 (IGROV1 ovarian) [µM]	GI50 (K-562 leukemia) [µM]	GI50 (CCRF-CEM leukemia) [µM]	GI50 (HOP-92 NSCLC) [µM]
Cc1cc(C)c(C(=O)c2no[n+]([O-])c2C(=O)c2c(C)cc(C)c(Br)c2C)c(C)c1Br	29.1	34.9	20.3	33.3	27.4	25.1	23.3	8.88												
NC(=S)NNc1c([N+](=O)[O-])cnn(-c2ccccc2)c1=O	34	32.7	34.8	29.4	35.1	28.4	35		33.2	15.9										
O=C1C(c2ccccc2)=[N+]([O-])c2ccccc21	32.8	33.6	20.7	32.6	42.1	27		> 100	23.3	8.34										
CC[O-].CC[O-].O=S(=O)([O-])c1ccc([O-])c2ncccc12.O=S(=O)([O-])c1ccc([O-])c2ncccc12.[Ti+4]	> 100	> 100		> 100	> 100	> 100	> 100	> 100	> 100	> 100	67.9	59.1	> 100	> 100	52.8	63.8	> 100	> 100	53.3	
C/C=C/C=C/C=C/C=C/C(=O)O	> 100	> 100		> 100	> 100	> 100	> 100	> 100	> 100	> 100										
COc1cc(C(=O)Nc2cc3c(cc2Oc2cc(C)cc(C)c2)C(=O)N(C)[C@@H](CC(=O)N(C)O)C(=O)N3)c(Br)c(OC)c1OC	< 0.00333	0.374	< 0.00333	0.00898	< 0.00333	0.0101	0.0104		0.0116	0.00872	< 0.00333	0.0111	< 0.00333	< 0.00333	< 0.00333	< 0.00333	< 0.00333	< 0.00333		< 0.00333
CCOC(=O)/C=C/C1=C(c2cccs2)c2ccccc2CC1		34.5	> 100	> 100	65.3	> 100	94.9	73.1	31.8	> 100		17.1	16.8	38.5	24.4	32	26.7	30.6	27.3	37.4
Cc1ccccc1C1=C(C(=O)Nc2ccc(Cl)c(Cl)c2)NC(=S)NC1N (stereo unspecified)	> 100	> 100			> 100	> 100	> 100	> 100	> 100	> 100										
Nc1ccccc1C#C/C=C\C#Cc1ccccc1	28.6	75		31.8	44.8	32.4		29.9	18.5	> 100	13	23.9	5	11.3	21.1	15.8		12.8	0.804	
CCOC(=O)c1cc(/C=C/C(C)=C/C(=O)OC)oc1C	> 100	> 100	> 100	> 100	> 100	> 100	> 100	> 100		> 100										
COc1ccc(-c2ccc(-c3ccc(C(=N)N)cn3)o2)cc1	17.8	19.6	6.4		11.1	4.68	19	13.7	14.1	13.5	4.74	6.56	3.43		3.4	2.12	5.29	3.97	3.2	1.31
O=C(O)C1CCCCC1C(=O)O.[NH-]C1CCC1.[NH2-].[Pt+2] (stereo unspecified)	33.2	31.3	44	> 100	35.3	27.3	> 100		12.5	> 100	17	16.4	3.36	42.6	17.2	12.6	57.5	29.6		19.4
Cc1ccc2nc(-c3ccc(N(C)C)c(Br)c3)cn2c1	> 100	> 100	> 100	> 100	> 100	> 100		> 100	> 100	> 100	8.14	> 100	5.78	> 100	7.02	> 100		2.93	6.52	44.4
CCOc1cccc(/C=N/NC(=O)C(=O)Nc2cccc(C(F)(F)F)c2)c1O	11.2	25.3		7.97	> 100	12.6	25.8	7.41	19	> 100	2.18	1.03	1.87	0.372	6.51	1.52	1.3	2	0.322	
O=C1NC(=S)S/C1=C(/C=C(\CC(=O)c1ccccc1)c1ccc(Cl)cc1)c1ccccc1	> 100	61.3		64.7		63.4	> 100	73.7	34.3	> 100	39	25.5	19.1	23.4		24.7	41.6	15.3	24.7	
COc1cc(/C=C2\C(=O)Nc3ccc(N(C)C)cc32)cc(OC)c1OC	7.88	98.4	36.3	> 100	> 100		5.43	10.1	24.6	> 25.6	2.44	4.72	2.75	3.16	2.11		1.5	0.58	2.28	3.17
CN(C)CCCNC(=O)c1ccc2c(c1)oc1cc3ccccc3c(=O)n12		16.1	> 50	40.5	27.7	35.5	43.5		13	> 50		8.33	6.1	19	12.7	14.3	9.94	27.2		> 50
Cc1nc2sccn2c1-c1csc(Nc2cccc(Cl)c2C)n1	25.3	> 100		10.6	14.7	28.5	73.2	82.1	3.92	> 100	6.61	6.84	1.52	1.72	3.29	5.04	8.83	2.12	4.01	

SMILES	TGI (SF-539 CNS) [µM]	TGI (ACHN renal) [µM]	TGI (HOP-92 NSCLC) [µM]	TGI (SF-295 CNS) [µM]	TGI (HT29 colon) [µM]	TGI (M14 melanoma) [µM]	TGI (IGROV1 ovarian) [µM]	TGI (CCRF-CEM leukemia) [µM]	TGI (SK-MEL-5 melanoma) [µM]	TGI (K-562 leukemia) [µM]	GI50 (SF-539 CNS) [µM]	GI50 (ACHN renal) [µM]	GI50 (SK-MEL-5 melanoma) [µM]	GI50 (SF-295 CNS) [µM]	GI50 (HT29 colon) [µM]	GI50 (M14 melanoma) [µM]	GI50 (IGROV1 ovarian) [µM]	GI50 (K-562 leukemia) [µM]	GI50 (CCRF-CEM leukemia) [µM]	GI50 (HOP-92 NSCLC) [µM]
C/C(=N\N(c1ccccc1)c1ccccc1)c1c(O)cc(C)oc1=O	> 100	> 100	> 100	> 100	> 100	> 100		> 100		> 100										
CCCCN(CCCC)c1c([N+](=O)[O-])c(=O)nc2ccccn12	> 100	> 100	> 100		> 100	83.3	> 100	> 100	> 100	> 100										
Cc1cc(S(=O)(=O)NC#N)c(S/C(=N\Nc2ccc([N+](=O)[O-])cc2)c2ccc(Cl)cc2)cc1Cl	28.9	> 100	96.9	65.5		> 100	> 100	> 100	42.3	80.3	13.7	34.1	18.5	22.7		54.5	> 100	35.3	32.1	19.4
COc1ccc(/C=C2\CCCC(C(NO)c3ccc(OC)cc3)C2=NO)cc1 (stereo unspecified)	83.3	> 100		> 100	> 100	> 100	> 100	> 100	47.6	> 100										
CCOC(=O)/C=C1\CCCC12OCCO2	> 100	> 100				> 100	> 100	> 100	> 100	> 100										
O=[N+]([O-])c1cnn(C2=CNc3ccccc3N=C2)c1	> 100	> 100	> 100	> 100	> 100			> 100												
Cc1c(C(=O)NCCN2CCOCC2)cn2ncnc(Oc3ccc(NC(=O)Nc4ccc(Cl)c(C(F)(F)F)c4)cc3)c12	2.14		2.8	3.34	> 100	2.55			3.01		0.508		1.65	1.77	1.57	1.08				1.02
O=C(c1ccncc1)n1nc(-c2ccccc2)c(N=Nc2ccccc2[N+](=O)[O-])c1-c1ccccc1	> 100		> 100	> 100	> 100	> 100	> 100	> 100	> 100	> 100										
COc1ccc(/C=C\c2cc(OC)c(O[Si](C)(C)C(C)(C)C)c(OC)c2)cc1	> 100	> 100	> 100		> 100	> 100	> 100	49.8		> 100										
CCC1=NC(CO)[C@H](c2ccccc2)O1 (stereo partly specified)	> 100	> 100	> 100	> 100	> 100		> 100		> 100	> 100										
CC(=O)NC(CCCCNC(=O)NCCCl)C(=O)NCc1ccccc1 (stereo unspecified)	> 100	> 100	> 100	> 100	> 100	> 100		> 100	> 100	> 100										
COC(=O)c1ccccc1NC(=O)C(=O)NNC(=O)c1ccncc1	> 100	> 100	> 100	> 100	> 100	> 100	> 100	> 100	> 100											
OC1(c2ccccc2)OC(C#Cc2ccccc2)(c2ccccc2)c2ccccc21 (stereo unspecified)	4.07		13.2	18	4.38	3.97	24.1	> 100	20.2	> 100										
COc1ccc2c(c1)/C(=C\c1c(Cl)[nH]c3ccc(OC)cc13)C(=O)N2		> 100	> 100	45.8	> 100	39.8	> 100	> 100	25.3			43.3		19.9	21.4	21.9	56.9		32.5	61.7
Nc1ccccc1C#C/C=C\C#Cc1ccccc1[N+](=O)[O-]	10.4	19	> 100	85.8		26.9	79.8	18.1	18.6	5.93	2.17	5.3	3.08	7.31		8.08	10.9	0.533	3.75	31.7
NC(N)=NCCC1OC(=O)C2=C1c1c(O)ccc3nccc(c13)O2 (stereo unspecified)	> 100	> 100		> 100		> 100	> 100	> 100	> 100	> 100	> 100	> 100	62.1	> 100		> 100	> 100	> 100	> 100	
Cc1ccc(-c2cc(-c3ccco3)c(C#N)c(=O)n2C2OC(OC(=O)c3ccccc3)C(OC(=O)c3ccccc3)C2OC(=O)c2ccccc2)cc1 (stereo unspecified)	> 100	> 100	59.4	> 100	> 100	> 100	> 100	> 100		> 100										
